Results on two compounds are retold here after paper PMC12715762, “Discovery of VU6052254: A Novel, Potent M1 Positive Allosteric Modulator” (ACS Chemical Neuroscience, 2025).

By EC50 is commonly meant the concentration at which the effect is half-maximal. For orientation: inhibition means the relative decrease from the control value, in per cent. By % Inhibition is commonly meant the change of the read-out against control, counted positive when it falls.

Values joined by “and” are separate entries in the source; they are usually repeats but may differ in a detail not shown here. Identical values can stand only once. Bounds are passed on as bounds.

In one data set the target is T1, human M1 (Homo sapiens, UniProt P11229).
T1 sequence (P11229 1-460): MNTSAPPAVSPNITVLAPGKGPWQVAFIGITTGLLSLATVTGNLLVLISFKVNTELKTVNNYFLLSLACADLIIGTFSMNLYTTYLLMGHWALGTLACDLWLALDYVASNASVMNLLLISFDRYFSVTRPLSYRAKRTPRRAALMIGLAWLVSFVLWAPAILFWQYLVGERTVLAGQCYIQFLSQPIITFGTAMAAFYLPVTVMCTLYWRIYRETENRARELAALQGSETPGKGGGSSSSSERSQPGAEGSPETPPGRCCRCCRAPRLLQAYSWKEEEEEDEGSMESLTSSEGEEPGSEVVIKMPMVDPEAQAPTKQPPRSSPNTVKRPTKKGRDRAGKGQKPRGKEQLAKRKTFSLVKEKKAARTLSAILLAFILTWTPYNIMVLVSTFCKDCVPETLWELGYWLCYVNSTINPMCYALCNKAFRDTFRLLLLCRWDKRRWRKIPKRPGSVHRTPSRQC
The data set can be described thus: M1 PAM calcium mobilization assay (human). Format: cell-based. Conditions: for hM1 PAM AChmax (%): human M1, % ACh max, n = 9. The protocol:
Procedures for Biological Experiments
Calcium mobilization assays:
All functional cell-based assays were performed in stable Chinese Hamster Ovary (CHO) cell lines constitutively expressing human M5 or human M1 receptors. For full muscarinic selectivity, CHO cells expressing human M3, human M2 plus Gqi5 or human M4 plus Gqi5 were used. Cells were plated at 15,000 cells per 20 µL per well in black 384-well, TC-treated, clear-bottomed plates (Greiner) in Ham’s F12 medium supplemented with 10% FBS and 20 mM HEPES. Cells were incubated overnight at 37 °C under 5% CO2. The following day, the medium was removed and replaced with 1.2 µM Fluo-4 AM (Invitrogen) in assay buffer (Hank’s Balanced Salt Solution supplemented with 20 mM HEPES and 2.5 mM Probenecid, pH 7.4) and the cells were incubated for 50 minutes at 37 °C under 5% CO2. Dye was then removed and replaced with 20 µL of fresh assay buffer. Test compounds at a 10 mM concentration in DMSO were serially diluted in DMSO (either 1:3 or 1:5 dilution) to create a 10-point concentration series. The DMSO solutions were then diluted in assay buffer resulting in compound solutions at 2-times the final assay concentration with the highest assay concentration of 30 µM. The compound plate, cell plate, and plates containing EC20 and EC80 acetylcholine concentrations were placed in a Hamamatsu FDSS 6000 or 7000 kinetic imaging plate reader equipped to measure Ex480/Em540 fluorescence. Data were collected at 1 frame per second. After 2 seconds of collecting baseline fluorescence, 20 µL of the compound solutions were added to the cell plate. This was followed by the addition of an EC20 concentration of acetylcholine at 142 seconds. […] The fluorescence signal was collected for a total of 300 seconds. […] Data were imported and analyzed in Dotmatics Informatics software. by normalizing all data in the individual kinetic traces to the initial fluorescence read. The magnitude of each agonist addition was then determined and normalized to the average maximum response. […] The IC50 determined using the EC80 of acetylcholine is the value reported. […]
On the technique in general: Calcium flux is commonly read through the fluorescence of an indicator in the cells.

The nature of the next data set: multispecies PK, summary. The class given is in vivo. Conditions: rat, dog, NHP, plasma, across nonclinical species.
In the next data set the test system is M1 KO mice. Kind of data set: Racine seizure assay in M1 KO mice. Format: in vivo, mouse. Conditions: result in words.
The target in the next data set is 3A5 (Homo sapiens, UniProt P20815). Kind of data set: CYP450 phenotyping, recombinant enzymes. Conditions: 3A5, panel of eight recombinant enzymes. Format: in vitro ADME.
In another data set the target is Adenosine A1 (Homo sapiens, UniProt P30542). Kind of data set: Eurofins radioligand binding.
The target in a further data set is Adenosine A2A (Homo sapiens, UniProt P29274). Kind of data set: Eurofins radioligand binding.
Another data set has as its target Adrenergic β1 (Homo sapiens, UniProt P08588). The data set can be described thus: Eurofins radioligand binding.
Another data set deals with Androgen (Testosterone) (Homo sapiens, UniProt P10275). The data set can be described thus: Eurofins radioligand binding.
A further data set has as its target Dopamine D3 (Homo sapiens, UniProt P35462). The data set can be described thus: Eurofins radioligand binding.
For the next data set, the target named is Endothelin ETA (Homo sapiens, UniProt P25101). Kind of data set: Eurofins radioligand binding.
A further data set concerns Glutamate, NMDA, Glycine. Kind of data set: Eurofins radioligand binding. Conditions: Rat.
The subject of data set [1] is Glutamate, NMDA, Phencyclidine. Kind of data set: Eurofins radioligand binding. Conditions: Rat.
The target of another data set is Histamine H1 (Homo sapiens, UniProt P35367). The data set can be described thus: Eurofins radioligand binding.
Another data set addresses Muscarinic M1 (Homo sapiens, UniProt P11229). Kind of data set: Eurofins radioligand binding.
A further data set has as its target Muscarinic M3 (Homo sapiens, UniProt P20309). The data set can be described thus: Eurofins radioligand binding.
Data set [2] concerns the target Nicotinic Acetylcholine α3β4 (Homo sapiens, UniProt P30926+P32297). Kind of data set: Eurofins radioligand binding.
Data set [3] addresses Nicotinic Acetylcholine α1, Bungarotoxin (Homo sapiens, UniProt P02708+P07510+Q07001). Kind of data set: Eurofins radioligand binding. Conditions: read-out: % Inhibition at 10 µM.
The target in a further data set is Opiate δ1 (OP1, DOP) (Homo sapiens, UniProt P41143). The data set can be described thus: Eurofins radioligand binding.
Another data set has as its target Potassium Channel [KATP] (Cricetus cricetus, UniProt Q09427). Kind of data set: Eurofins radioligand binding. Conditions: Hamster.
A further data set addresses Prostanoid EP4 (Homo sapiens, UniProt P35408). Kind of data set: Eurofins radioligand binding.
The next data set deals with Purinergic P2X. Kind of data set: Eurofins radioligand binding. Conditions: Rat.
The next data set concerns the target Serotonin (5-HT1A) (Homo sapiens, UniProt P08908). The data set can be described thus: Eurofins radioligand binding.
The target in the next data set is Serotonin (5-HT3) (Homo sapiens, UniProt P46098). The data set can be described thus: Eurofins radioligand binding.

Histamine H1, sequence (P35367 whole entry): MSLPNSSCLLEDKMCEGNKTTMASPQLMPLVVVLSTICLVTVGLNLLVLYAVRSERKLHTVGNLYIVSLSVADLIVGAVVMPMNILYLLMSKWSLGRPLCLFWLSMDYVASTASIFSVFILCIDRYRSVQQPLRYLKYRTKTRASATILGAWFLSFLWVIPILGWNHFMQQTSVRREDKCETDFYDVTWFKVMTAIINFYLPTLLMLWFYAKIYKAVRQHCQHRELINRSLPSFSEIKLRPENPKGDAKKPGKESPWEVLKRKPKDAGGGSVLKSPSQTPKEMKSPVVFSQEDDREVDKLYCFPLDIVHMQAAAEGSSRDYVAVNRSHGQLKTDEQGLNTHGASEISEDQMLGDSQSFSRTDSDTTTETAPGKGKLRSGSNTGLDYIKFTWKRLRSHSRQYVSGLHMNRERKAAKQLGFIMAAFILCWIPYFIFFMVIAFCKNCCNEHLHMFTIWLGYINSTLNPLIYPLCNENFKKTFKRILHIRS
Muscarinic M3, sequence (P20309 whole entry): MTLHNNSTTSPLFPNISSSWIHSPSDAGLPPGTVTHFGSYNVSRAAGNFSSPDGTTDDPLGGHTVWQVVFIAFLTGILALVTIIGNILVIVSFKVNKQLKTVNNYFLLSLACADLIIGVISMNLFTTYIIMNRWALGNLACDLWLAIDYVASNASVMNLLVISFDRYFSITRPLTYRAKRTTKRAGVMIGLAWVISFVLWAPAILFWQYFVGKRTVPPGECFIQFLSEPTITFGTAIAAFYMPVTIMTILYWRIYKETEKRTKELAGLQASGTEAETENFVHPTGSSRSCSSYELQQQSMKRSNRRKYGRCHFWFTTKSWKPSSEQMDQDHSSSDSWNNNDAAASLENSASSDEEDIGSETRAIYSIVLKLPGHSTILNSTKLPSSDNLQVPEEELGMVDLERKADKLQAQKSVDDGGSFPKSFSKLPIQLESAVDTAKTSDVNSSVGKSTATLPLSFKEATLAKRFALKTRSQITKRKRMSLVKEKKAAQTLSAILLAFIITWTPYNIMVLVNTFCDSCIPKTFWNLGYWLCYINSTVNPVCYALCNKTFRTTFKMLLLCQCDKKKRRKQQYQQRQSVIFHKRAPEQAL
Nicotinic Acetylcholine α3β4, sequence (P32297 32-505): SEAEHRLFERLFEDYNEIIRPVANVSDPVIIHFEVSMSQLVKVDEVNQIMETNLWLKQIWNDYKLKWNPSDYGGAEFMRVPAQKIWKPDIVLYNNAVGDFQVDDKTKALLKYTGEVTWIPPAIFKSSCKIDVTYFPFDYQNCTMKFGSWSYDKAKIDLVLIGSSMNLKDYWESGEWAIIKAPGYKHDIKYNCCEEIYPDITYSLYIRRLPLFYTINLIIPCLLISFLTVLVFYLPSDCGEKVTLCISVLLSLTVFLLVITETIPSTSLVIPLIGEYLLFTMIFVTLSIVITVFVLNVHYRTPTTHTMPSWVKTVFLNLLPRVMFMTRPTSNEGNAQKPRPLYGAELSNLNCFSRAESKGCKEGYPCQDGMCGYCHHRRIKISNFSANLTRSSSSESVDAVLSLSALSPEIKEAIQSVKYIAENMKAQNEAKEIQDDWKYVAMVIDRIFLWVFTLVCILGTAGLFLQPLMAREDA
Nicotinic Acetylcholine α3β4, sequence (P30926 22-498): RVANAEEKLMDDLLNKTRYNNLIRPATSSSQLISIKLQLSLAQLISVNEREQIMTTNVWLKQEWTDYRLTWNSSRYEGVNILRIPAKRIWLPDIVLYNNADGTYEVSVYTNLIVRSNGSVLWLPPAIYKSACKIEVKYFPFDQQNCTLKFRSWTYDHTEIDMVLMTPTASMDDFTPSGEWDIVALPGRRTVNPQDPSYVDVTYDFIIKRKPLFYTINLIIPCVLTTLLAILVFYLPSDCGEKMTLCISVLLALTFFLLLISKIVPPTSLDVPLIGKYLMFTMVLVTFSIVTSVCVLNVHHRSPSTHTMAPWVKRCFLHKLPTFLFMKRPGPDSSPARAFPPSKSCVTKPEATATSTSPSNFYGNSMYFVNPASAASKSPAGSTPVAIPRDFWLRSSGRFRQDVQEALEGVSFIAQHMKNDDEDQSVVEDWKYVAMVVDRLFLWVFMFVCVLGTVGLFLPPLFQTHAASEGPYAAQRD
Adrenergic β1, sequence (P08588 whole entry): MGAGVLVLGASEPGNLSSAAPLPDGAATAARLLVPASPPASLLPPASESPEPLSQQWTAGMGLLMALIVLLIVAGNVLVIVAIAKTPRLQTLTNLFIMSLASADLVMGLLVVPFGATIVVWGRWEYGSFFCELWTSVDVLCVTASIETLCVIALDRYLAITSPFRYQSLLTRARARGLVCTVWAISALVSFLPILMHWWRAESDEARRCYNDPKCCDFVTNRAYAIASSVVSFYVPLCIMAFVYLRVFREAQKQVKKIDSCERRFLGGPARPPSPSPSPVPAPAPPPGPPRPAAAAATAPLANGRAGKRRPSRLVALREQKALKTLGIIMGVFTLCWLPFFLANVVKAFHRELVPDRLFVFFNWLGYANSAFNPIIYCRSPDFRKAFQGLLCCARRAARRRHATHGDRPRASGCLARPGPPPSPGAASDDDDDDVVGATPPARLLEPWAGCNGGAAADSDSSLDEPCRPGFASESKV
Prostanoid EP4, sequence (P35408 whole entry): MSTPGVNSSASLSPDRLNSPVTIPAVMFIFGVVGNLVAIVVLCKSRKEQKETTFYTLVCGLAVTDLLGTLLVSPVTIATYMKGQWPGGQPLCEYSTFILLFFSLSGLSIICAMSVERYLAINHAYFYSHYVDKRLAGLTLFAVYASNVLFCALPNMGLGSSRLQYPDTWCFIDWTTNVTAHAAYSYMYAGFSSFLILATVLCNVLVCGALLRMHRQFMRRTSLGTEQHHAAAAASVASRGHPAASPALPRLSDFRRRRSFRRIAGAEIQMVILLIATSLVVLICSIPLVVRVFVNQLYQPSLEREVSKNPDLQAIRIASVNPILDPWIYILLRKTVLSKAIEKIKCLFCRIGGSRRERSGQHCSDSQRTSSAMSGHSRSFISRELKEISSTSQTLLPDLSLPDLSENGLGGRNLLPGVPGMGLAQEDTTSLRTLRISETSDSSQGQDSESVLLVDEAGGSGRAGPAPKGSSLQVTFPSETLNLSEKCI
Androgen (Testosterone), sequence (P10275 whole entry): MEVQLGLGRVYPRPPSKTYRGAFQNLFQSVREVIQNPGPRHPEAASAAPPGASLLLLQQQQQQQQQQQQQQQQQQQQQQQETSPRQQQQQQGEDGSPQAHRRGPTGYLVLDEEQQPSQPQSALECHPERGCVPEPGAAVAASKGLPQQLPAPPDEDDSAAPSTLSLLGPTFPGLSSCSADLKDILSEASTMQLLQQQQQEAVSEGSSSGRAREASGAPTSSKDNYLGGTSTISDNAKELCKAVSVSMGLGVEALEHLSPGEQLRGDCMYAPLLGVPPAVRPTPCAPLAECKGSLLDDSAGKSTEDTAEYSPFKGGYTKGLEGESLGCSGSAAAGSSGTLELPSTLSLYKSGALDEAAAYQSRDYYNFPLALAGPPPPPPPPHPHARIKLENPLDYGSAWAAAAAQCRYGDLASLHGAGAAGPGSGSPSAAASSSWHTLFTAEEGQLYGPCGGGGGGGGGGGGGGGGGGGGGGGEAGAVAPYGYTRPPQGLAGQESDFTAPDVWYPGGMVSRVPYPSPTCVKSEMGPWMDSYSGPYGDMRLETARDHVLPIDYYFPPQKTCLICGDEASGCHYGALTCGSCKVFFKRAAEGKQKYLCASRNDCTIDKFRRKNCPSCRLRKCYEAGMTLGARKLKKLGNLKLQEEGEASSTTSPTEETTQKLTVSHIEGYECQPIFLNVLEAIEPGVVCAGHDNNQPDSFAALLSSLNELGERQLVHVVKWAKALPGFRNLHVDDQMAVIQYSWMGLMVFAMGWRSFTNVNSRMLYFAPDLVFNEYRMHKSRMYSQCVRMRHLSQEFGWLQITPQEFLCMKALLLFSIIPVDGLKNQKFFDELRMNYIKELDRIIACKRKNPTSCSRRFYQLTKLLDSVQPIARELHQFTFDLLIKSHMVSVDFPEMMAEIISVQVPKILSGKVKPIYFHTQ
Adenosine A1, sequence (P30542 whole entry): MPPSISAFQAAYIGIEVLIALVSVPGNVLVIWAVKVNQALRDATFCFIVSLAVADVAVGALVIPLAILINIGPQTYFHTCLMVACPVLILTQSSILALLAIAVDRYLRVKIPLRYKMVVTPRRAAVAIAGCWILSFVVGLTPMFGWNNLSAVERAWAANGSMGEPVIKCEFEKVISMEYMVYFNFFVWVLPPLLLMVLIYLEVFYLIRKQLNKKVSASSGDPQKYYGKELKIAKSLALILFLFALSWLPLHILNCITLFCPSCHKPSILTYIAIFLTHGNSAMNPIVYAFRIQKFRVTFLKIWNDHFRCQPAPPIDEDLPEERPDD
Endothelin ETA, sequence (P25101 21-427): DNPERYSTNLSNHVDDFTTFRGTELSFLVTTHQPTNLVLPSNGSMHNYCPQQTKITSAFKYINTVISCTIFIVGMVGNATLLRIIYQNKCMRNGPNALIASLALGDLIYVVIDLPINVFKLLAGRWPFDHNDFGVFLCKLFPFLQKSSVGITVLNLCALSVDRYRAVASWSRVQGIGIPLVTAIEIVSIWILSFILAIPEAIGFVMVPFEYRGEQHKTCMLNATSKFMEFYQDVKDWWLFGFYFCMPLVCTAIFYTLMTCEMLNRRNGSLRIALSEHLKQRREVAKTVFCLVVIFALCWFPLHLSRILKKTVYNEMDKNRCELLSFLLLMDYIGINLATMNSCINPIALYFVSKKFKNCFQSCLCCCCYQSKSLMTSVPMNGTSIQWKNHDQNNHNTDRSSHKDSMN

For the compound `Cn1cc2c(-c3cc(F)c(CN4Cc5ncccc5C4=O)c(F)c3)cccc2n1` [compound 1, reference compound], the “hM1 PAM AChmax (%)” value on human M1 stood at 71%.

For the compound `Cn1cc2c(-c3cc(F)c(CN4Cc5ncccc5C4=O)c(F)c3)ccc(C(C)(C)O)c2n1` [compound 7], the “hM1 PAM AChmax (%)” value at human M1 was 78% and 80%. Besides, the EC50 on human M1 (human M1, n = 9, read-out: hM1 PAM EC50) was determined as 59 nM. Also, the bioavailability in the data set “multispecies PK, summary” (read-out: %F, multispecies) was > 65%. In addition, the clearance in the data set “multispecies PK, summary” (read-out: Clp s, multispecies) is < 10 mL/min/kg. Besides, the “Racine-scale effects in M1 KO mice” value in the data set with M1 KO mice is “absent”. In addition, the “contribution to metabolism, CYP450 phenotyping” value on 3A5 was found to be 3.2%. In addition, the inhibition at 10 µM at Adenosine A1 was -2%; on Adenosine A2A, 3%; at Adrenergic β1 it was 5%; on Androgen (Testosterone), -4%; on Dopamine D3, -10%; on Endothelin ETA it was 11%. Besides, the inhibition at 10 µM on Histamine H1 was 4%; on Muscarinic M1 it was 18%; at Muscarinic M3 it was 7%; in data set [2], 4%; in [3], 2%; at Opiate δ1 (OP1, DOP) it was -2%. Further, the inhibition at 10 µM on Potassium Channel [KATP] was 11%; at Prostanoid EP4, 21%; on Serotonin (5-HT1A) it was 12%; on Serotonin (5-HT3), -14%. For the same compound, the “% Inhibition at 10 µM” value is recorded as -9% with Glutamate, NMDA, Glycine; -1% in [1]; 4% in the data set with Purinergic P2X.
